Measurements: US20140206028A1, “Stable Electrically Active Neurons from Adult Tissue” (University of Central Florida Research Foundation, Inc., priority 2011, published 2014)

System: adult rat hippocampal neurons
Assay: Whole-cell patch-clamp electrophysiology of cultured adult hippocampal neurons (electrical recovery)
Format: cell-based
Details: cycloheximide during incubation of confluent neurons with 25 μM glutamate
Description: Whole-cell, patch-clamp recordings were performed at room temperature. pH was adjusted to 7.3 with HEPES acid and base, ion concentrations with NaCl to approximately 130 mM, and osmolarity of 290-300 mOsm. Cells were visualized on the stage with a Zeiss Axioscope, 2 FS Plus, upright microscope in maintenance culture medium. Patch pipettes (4-8 M′Ω) were filled with intracellular solution (K-gluconate 140 mM, EGTA 1 mM, MgCl2 2 mM, Na2ATP 5 mM, HEPES 10 mM; pH 7.2), osmolarity approximately 260 mOsm. Voltage clamp and current clamp experiments were performed with a Multiclamp 700A (MDS Analytical Devices) amplifier. Signals were filtered at 3 kHz and digitized at 20 kHz with an Axon Digidata 1322A interface. Data recordings and analysis were performed with pClamp software. Whole-cell capacitance and series resistance were compensated electronically. Only cells with access resistance less than 22 M′Ω were analyzed. Inward currents that had the characteristics of fast sodium currents, and outward currents that had the characteristics of potassium currents were measured in voltage clamp mode using voltage steps of 10 mV from a −70 mV holding potential. Action potentials were measured with 1 s depolarizing current injections to elicit action potentials from a −70 mV holding potential. Cells were morphologically selected for electrophysiological characterization. […]

In the case of `C[C@@H]1C[C@@H]([C@H](O)CC2CC(=O)NC(=O)C2)C(=O)[C@@H](C)C1` [cycloheximide], the “glutamate-induced improvements in neuronal electrical activity” value is reported as “completely blocked”.
